Results taken from patent US8158811B2, “Unsaturated fatty hydroxy acid derivatives and the dermocosmetologic use thereof” (Pierre Fabre Dermo-Cosmetique, priority 2005, dated 2012).

Assays:
[1] = test system: FATP4; test: keratinocyte differentiation, real-time RT-PCR of FATP4 transcripts; format: cell-based, human; settings: NHK, 48 hours
Method: Normal human keratinocytes (NHK) proliferate and differentiate in vitro, forming stratified layers which mimic the basal organisation of the skin. Extracellular calcium concentrations in excess of 0.1 mM initiate a cascade of genome and non-genome events which take the keratinocytes from a proliferative phase towards a differentiation phase. Keratinocyte differentiation can then be evaluated by studying the expression of several markers such as keratins 1 and 10, transglutaminase 1, desaturase DES2, involucrine, FATP4 and ABCG1 transporters. We therefore evaluated the effect of certain hydroxyalcene carboxylic acids in an in vitro culture model.
Normal human keratinocytes are isolated from skin explants. They are cultured in KSFM medium (Gibco) with a low calcium content (0.1 mM) containing 25 μg/ml of BPE (bovine pituitary extract) and […] of EGF (epithelium growth factor). 24 hours after culturing, differentiation is triggered by the addition of calcium (final concentration 1.2 mM). The active ingredients are added or not at the same time as calcium at concentrations of 100 and 1 μg/ml in order to determine whether or not they have a potentialising effect on differentiation. Cells were then analysed 48 hours after the addition of calcium and these products.
Total RNA was extracted under cold conditions from keratinocytes.
After reverse transcription of mRNA into cDNA, PCRs were made up in 96 well plates (iCycler quantitative PCR apparatus, BioRad). Expression of transcripts of transglutaminase, desaturase (DES2), ABCG1 and FATP4 were standardized with respect to the expression of reference genes (GAPDH, UBC, HPRT).

[2] = test system: prostaglandin 6KF1α; test: production of prostaglandin 6KF1α by keratinocytes stimulated with calcium ionophore A23187 (ELISA); format: cell-based; settings: 3 μg/ml, A23187 1 μm 5 hours
Method: A suspension of keratinocytes in DMEM 10% foetal calf serum was divided into 6 well plates (1.2. 106cells/wells) and incubated for 16 hours at 37° C. in a 5% CO2 atmosphere. The keratinocytes were then rinsed with PBS in order to eliminate non adhering cells then exposed to the products to be tested included in DMEM without foetal calf serum (which could interfere with the assay).
The concentration tested in culture was 3 μg/ml. This was retained as the test concentration after a preliminary evaluation test for cytotoxicity (neutral red) and is not cytotoxic.
For each treatment, three wells were tested. Cells were pre-incubated for 60 minutes with the products to be tested then a stimulating agent was added to stimulate the arachidonic acid cascade (calcium ionophore) which was added for 5 hours: calcium ionophore A23187 was used at a concentration of 1 μm.
After 5 hours in culture, the culture medium for each well was recovered, centrifuged at 3000 rpm and stored at −80° C.
The production of prostaglandin 6KF1α for each of the tests was measured using a EUROMEDEX Elisa Kit.
Results are expressed as the percentage activity/stimulated control.

[3] = test system: intracellular AOSs, fibroblast line L929; test: in vitro assay of intracellular AOSs (H2DCF-DA probe) after H2O2/iron oxidative stress; format: cell-based, murin; settings: pre-incubation 3 h, L929
[4] = test system: Interleukin 8; test: release of Interleukin 8 by keratinocytes NHK stimulated with PMA + calcium ionophore A23187 (ELISA); format: cell-based, human; settings: IL8 release

SMILES | Induction Factor vs Control (CaCl2 1.2 mM) FATP4 ([1]; 1 μg/ml) | Induction Factor vs Control (CaCl2 1.2 mM) FATP4 ([1]; 100 μg/ml) | % inhibiting activity of evaluated molecules on the production of PG6KF1α Inflammation [2] | Percentage inhibition of the intracellular production of AOS ([3]; 0.02 ng/ml) [%] | Percentage inhibition of the intracellular production of AOS ([3]; 0.2 ng/ml) [%] | Percentage inhibition of the intracellular production of AOS ([3]; 2 ng/ml) [%] | Percentage inhibition of the intracellular production of AOS ([3]; 20 ng/ml) [%] | ED50 [4] [µg/mL]
O=C(O)C(F)=CCCCCCO (mixture of isomers) [n=4, R=H, Rn=H, R1=F] | 1.3 | 1.4 | 30% | 10 | 6 | −4 | −36 | –
O=C(O)C=CCCCCO [n=3, R=H, Rn=H, R1=H] | 1.4 | 1.2 | 29% | 21 | 15 | 11 | 14 | –
O=C(O)C=CCCCCCO [n=4, R=H, Rn=H, R1=H] | 1.0 | 1.4 | – | 17 | 9 | 9 | 0 | –
O=C(O)/C=C/CCCCCCCCCCO [n=9, R=H, Rn=H, R1=H, 13-hydroxy-tridec-2t-enoic acid] | 1.2 | 4.5 | 31% | 9 | 10 | 6 | −22 | –
O=C(O)C(F)=CCCCCCCCCCCCO [n=10, R=H, Rn=H, R1=F, 14-hydroxy-tetradec-2-fluoro-2-enoic acid] | 1.0 | 2.3 | 18% | 29 | 16 | 0 | −19 | –
O=C(O)/C=C/CCCCCCCCCCCO [n=10, R=H, Rn=H, R1=H, 14-hydroxy-tetradec-2t-enoic acid] | 1.2 | 5.9 | Non active | 11 | 4 | −20 | −34 | –
O=C(O)C(F)=CCCCCCCCCCCCCCCO [n=13, R=H, Rn=H, R1=F, 17-hydroxy-heptadec-2-fluoro-2-enoic acid] | 2.2 | – | 14% | 36 | 28 | 14 | −9 | <3
O=C(O)/C=C/CCCCCCCCCCCCCCO [n=13, R=H, Rn=H, R1=H, 17-hydroxy-heptadec-2t-enoic acid] | 1.4 | – | 25% | 3 | 13 | −1 | −10 | <3
